Here are results for 28 molecules from US9839629B2, “Inhibitors of the renal outer medullary potassium channel” (Merck Sharp & Dohme Corp., priority 2013, dated 2017).

The assay addresses T1, ROMK (Kir1.1) channel (Homo sapiens, UniProt P48048).
T1 sequence (P48048 1-391): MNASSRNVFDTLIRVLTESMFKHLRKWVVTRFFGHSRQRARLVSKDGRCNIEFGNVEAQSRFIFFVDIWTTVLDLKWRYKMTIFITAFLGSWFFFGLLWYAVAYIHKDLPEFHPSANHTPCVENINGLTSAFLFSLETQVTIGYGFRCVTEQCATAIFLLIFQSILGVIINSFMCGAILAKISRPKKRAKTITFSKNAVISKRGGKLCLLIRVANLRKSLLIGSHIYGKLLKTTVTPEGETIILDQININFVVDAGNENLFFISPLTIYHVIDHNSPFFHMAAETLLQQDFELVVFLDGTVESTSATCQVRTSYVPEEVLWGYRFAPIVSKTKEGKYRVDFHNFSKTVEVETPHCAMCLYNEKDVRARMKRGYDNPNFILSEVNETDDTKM
Briefly: Thallium Flux Assay. The assay is classed as cell-based. As to the method: A Thallium Flux Assay was performed on each of the final product compounds in the Examples. When the final product of an Example was an HCl salt, the salt was run in the Assay. This assay has been described previously; see, e.g., PCT Published Application WO 2013/062900.
In the case of `CC1=C(N2CCC3(CCN(C[C@@H](O)c4ccc(-n5cnnn5)cc4)CC3)CC2)COC1=O` [Example 50, (S)-4-(9-(2-(4-(1H-tetrazol-1-yl)phenyl)-2-hydroxyethyl)-3,9-diazaspiro[5.5]undecan-3-yl)-3-methylfuran-2(5H)-one], the IC50 (in general, the midpoint of a concentration-inhibition curve) worked out at 0.016 µM.

In turn, `CC1=C(N2CCC3(CCN(C[C@H](O)c4ccc(-n5cnnn5)cn4)CC3)CC2)COC1=O` [Example 51, (S)-4-(9-(2-(5-(1H-tetrazol-1-yl)pyridin-2-yl)-2-hydroxyethyl)-3,9-diazaspiro[5.5]undecan-3-yl)-3-methylfuran-2(5H)-one] displayed an IC50 of 0.07 µM.

`CC1=C(N2CCC3(CCN(C[C@@H](O)c4ccc(-n5cnnn5)cn4)CC3)CC2)COC1=O` [Example 52, (R)-4-(9-(2-(5-(1H-tetrazol-1-yl)pyridin-2-yl)-2-hydroxyethyl)-3,9-diazaspiro[5.5]undecan-3-yl)-3-methylfuran-2(5H)-one] returned an IC50 of 0.037 µM.

`CC1=C(N2CCC3(CCN(C[C@H](O)c4ccc(-n5cnnn5)cc4F)CC3)CC2)COC1=O` [Example 53, (R)-4-(9-(2-(2-fluoro-4-(1H-tetrazol-1-yl)phenyl)-2-hydroxyethyl)-3,9-diazaspiro[5.5]undecan-3-yl)-3-methylfuran-2(5H)-one] came in with an IC50 of 0.014 µM.

Molecule `CC1=C(N2CCC3(CCN(C[C@@H](O)c4ccc(-n5cnnn5)cc4F)CC3)CC2)COC1=O` [Example 54, (S)-4-(9-(2-(2-fluoro-4-(1H-tetrazol-1-yl)phenyl)-2-hydroxyethyl)-3,9-diazaspiro[5.5]undecan-3-yl)-3-methylfuran-2(5H)-one] yielded a half-inhibitory concentration (IC50) of 0.008 µM.

`CC1=C(N2CCC3(CCN(C[C@H](O)c4ccc(-n5cnnn5)cc4C)CC3)CC2)COC1=O` [Example 55, (R)-4-(9-(2-hydroxy-2-(2-methyl-4-(1H-tetrazol-1-yl)phenyl)ethyl)-3,9-diazaspiro[5.5]undecan-3-yl)-3-methylfuran-2(5H)-one] registered a 50% inhibitory concentration (IC50) of 0.011 µM.

Turning to `CC1=C(N2CCC3(CCN(C[C@@H](O)c4ccc(-n5cnnn5)cc4C)CC3)CC2)COC1=O` [Example 56, (S)-4-(9-(2-hydroxy-2-(2-methyl-4-(1H-tetrazol-1-yl)phenyl)ethyl)-3,9-diazaspiro[5.5]undecan-3-yl)-3-methylfuran-2(5H)-one], half-maximal inhibition (IC50) required 0.011 µM.

As for `CC1=C(N2CCC3(CC2)CCN([C@H](CO)c2ccc(-n4cnnn4)cc2C)CC3)COC1=O` [Example 57, (S)-4-(9-(2-hydroxy-1-(2-methyl-4-(1H-tetrazol-1-yl)phenyl)ethyl)-3,9-diazaspiro[5.5]undecan-3-yl)-3-methylfuran-2(5H)-one], the IC50 was 0.232 µM.

In the case of `CC1=C(N2CCC3(CC2)CCN([C@@H](CO)c2ccc(-n4cnnn4)cc2C)CC3)COC1=O` [Example 58, (R)-4-(9-(2-hydroxy-1-(2-methyl-4-(1H-tetrazol-1-yl)phenyl)ethyl)-3,9-diazaspiro[5.5]undecan-3-yl)-3-methylfuran-2(5H)-one], the IC50 amounted to 0.256 µM.

The molecule `CC1=C(N2CCC3(CCN(C[C@H](O)c4cccc(-n5cnnn5)c4)CC3)CC2)COC1=O` [Example 59, (R)-4-(9-(2-(3-(1H-tetrazol-1-yl)phenyl)-2-hydroxyethyl)-3,9-diazaspiro[5.5]undecan-3-yl)-3-methylfuran-2(5H)-one] registered an IC50 of 0.022 µM. This IC50 is about 12-fold lower than that of the molecule before.

The molecule `CC1=C(N2CCC3(CCN(C[C@@H](O)c4cccc(-n5cnnn5)c4)CC3)CC2)COC1=O` [Example 60, (S)-4-(9-(2-(3-(1H-tetrazol-1-yl)phenyl)-2-hydroxyethyl)-3,9-diazaspiro[5.5]undecan-3-yl)-3-methylfuran-2(5H)-one] had an IC50 of 0.032 µM.

As to `CC1=C(N2CCC3(CCN(C[C@H](O)c4ccnc(-n5cnnn5)c4)CC3)CC2)COC1=O` [Example 61, (R)-4-(9-(2-(2-(1H-tetrazol-1-yl)pyridin-4-yl)-2-hydroxyethyl)-3,9-diazaspiro[5.5]undecan-3-yl)-3-methylfuran-2(5H)-one], the IC50 came out at 0.033 µM.

`CC1=C(N2CCC3(CCN(C[C@@H](O)c4ccnc(-n5cnnn5)c4)CC3)CC2)COC1=O` [Example 62, (S)-4-(9-(2-(2-(1H-tetrazol-1-yl)pyridin-4-yl)-2-hydroxyethyl)-3,9-diazaspiro[5.5]undecan-3-yl)-3-methylfuran-2(5H)-one] yielded an IC50 of 0.039 µM.

Molecule `CC1=C(N2CCC3(CCN(C[C@H](O)c4cncc(-n5cnnn5)c4)CC3)CC2)COC1=O` [Example 63, (R)-4-(9-(2-(5-(1H-tetrazol-1-yl)pyridin-3-yl)-2-hydroxyethyl)-3,9-diazaspiro[5.5]undecan-3-yl)-3-methylfuran-2(5H)-one] had an IC50 of 0.196 µM.

The molecule `CC1=C(N2CCC3(CCN(C[C@@H](O)c4cncc(-n5cnnn5)c4)CC3)CC2)COC1=O` [Example 64, (S)-4-(9-(2-(5-(1H-tetrazol-1-yl)pyridin-3-yl)-2-hydroxyethyl)-3,9-diazaspiro[5.5]undecan-3-yl)-3-methylfuran-2(5H)-one] displayed a concentration for half-maximal inhibition (IC50) of 0.117 µM.

Molecule `CC1=C(N2CCC3(CCN(C[C@H](O)c4cncc(-n5cnnn5)n4)CC3)CC2)COC1=O` [Example 65, (S)-4-(9-(2-(6-(1H-tetrazol-1-yl)pyrazin-2-yl)-2-hydroxyethyl)-3,9-diazaspiro[5.5]undecan-3-yl)-3-methylfuran-2(5H)-one] had an IC50 of 0.109 µM.

As for `CC1=C(N2CCC3(CCN(C[C@@H](O)c4cncc(-n5cnnn5)n4)CC3)CC2)COC1=O` [Example 66, (R)-4-(9-(2-(6-(1H-tetrazol-1-yl)pyrazin-2-yl)-2-hydroxyethyl)-3,9-diazaspiro[5.5]undecan-3-yl)-3-methylfuran-2(5H)-one], half-maximal inhibition (IC50) was put at 0.11 µM.

On to `CC1=C(N2CCC3(CCN(C[C@H](O)c4cc(-n5cnnn5)ccn4)CC3)CC2)COC1=O` [Example 67, (S)-4-(9-(2-(4-(1H-tetrazol-1-yl)pyridin-2-yl)-2-hydroxyethyl)-3,9-diazaspiro[5.5]undecan-3-yl)-3-methylfuran-2(5H)-one], for which the IC50 stood at 0.305 µM.

The molecule `CC1=C(N2CCC3(CCN(C[C@@H](O)c4cc(-n5cnnn5)ccn4)CC3)CC2)COC1=O` [Example 68, (R)-4-(9-(2-(4-(1H-tetrazol-1-yl)pyridin-2-yl)-2-hydroxyethyl)-3,9-diazaspiro[5.5]undecan-3-yl)-3-methylfuran-2(5H)-one] registered an IC50 of 0.185 µM.

In turn, `CC1=C(N2CCC3(CCN(C[C@@H](O)c4ccccc4-n4cnnn4)CC3)CC2)COC1=O` [Example 69, (S)-4-(9-(2-(2-(1H-tetrazol-1-yl)phenyl)-2-hydroxyethyl)-3,9-diazaspiro[5.5]undecan-3-yl)-3-methylfuran-2(5H)-one] registered an IC50 of 0.634 µM.

As to `Cc1nc(-n2cnnn2)ccc1[C@@H](O)CN1CCC2(CC1)CCN(C1=CC(=O)CC1)CC2` [Example 70, (R)-3-(9-(2-hydroxy-2-(2-methyl-6-(1H-tetrazol-1-yl)pyridin-3-yl)ethyl)-3,9-diazaspiro[5.5]undecan-3-yl)cyclopent-2-enone], the IC50 was 0.049 µM. Compared with the last molecule, the IC50 is about 13-fold lower.

As for `Cc1nc(-n2cnnn2)ccc1[C@H](O)CN1CCC2(CC1)CCN(C1=CC(=O)CC1)CC2` [Example 71, (S)-3-(9-(2-hydroxy-2-(2-methyl-6-(1H-tetrazol-1-yl)pyridin-3-yl)ethyl)-3,9-diazaspiro[5.5]undecan-3-yl)cyclopent-2-enone], the IC50 came out at 0.243 µM.

`Cc1c([C@@H](O)CN2CCC3(CC2)CCN(C2=CC(=O)CC2)CC3)ccc2c1COC2=O` [Example 72, (R)-5-(1-hydroxy-2-(9-(3-oxocyclopent-1-en-1-yl)-3,9-diazaspiro[5.5]undecan-3-yl)ethyl)-4-methylisobenzofuran-1(3H)-one] gave an IC50 of 0.439 µM.

`Cc1cc(-n2cnnn2)ccc1[C@@H](O)CN1CCC2(CC1)CCN(C1=CC(=O)CC1)CC2` [Example 73, (R)-3-(9-(2-hydroxy-2-(2-methyl-4-(1H-tetrazol-1-yl)phenyl)ethyl)-3,9-diazaspiro[5.5]undecan-3-yl)cyclopent-2-enone] registered an IC50 of 0.179 µM.

Molecule `CC1=C(N2CCC3(CCN(C[C@H](O)c4ccc(-n5cnnn5)nc4C)CC3)CC2)CCC1=O` [Example 74, (R)-3-(9-(2-hydroxy-2-(2-methyl-6-(1H-tetrazol-1-yl)pyridin-3-yl)ethyl)-3,9-diazaspiro[5.5]undecan-3-yl)-2-methylcyclopent-2-enone] came in with an IC50 of 0.069 µM.

In the case of `CC1=C(N2CCC3(CCN(C[C@@H](O)c4ccc(-n5cnnn5)nc4C)CC3)CC2)CCC1=O` [Example 75, (S)-3-(9-(2-hydroxy-2-(2-methyl-6-(1H-tetrazol-1-yl)pyridin-3-yl)ethyl)-3,9-diazaspiro[5.5]undecan-3-yl)-2-methylcyclopent-2-enone], half-maximal inhibition (IC50) was put at 0.279 µM.

In the case of `CC1=C(N2CCC3(CCN(C[C@H](O)c4ccc5c(c4C)COC5=O)CC3)CC2)CCC1=O` [Example 76, (R)-5-(1-hydroxy-2-(9-(2-methyl-3-oxocyclopent-1-en-1-yl)-3,9-diazaspiro[5.5]undecan-3-yl)ethyl)-4-methylisobenzofuran-1(3H)-one], the half-maximal inhibitory concentration (IC50) is 0.109 µM. This IC50 is about 2.6-fold lower than that of the molecule before.

`CC1=C(N2CCC3(CCN(C[C@H](O)c4ccc(-n5cnnn5)cc4C)CC3)CC2)CCC1=O` [Example 77, (R)-3-(9-(2-hydroxy-2-(2-methyl-4-(1H-tetrazol-1-yl)phenyl)ethyl)-3,9-diazaspiro[5.5]undecan-3-yl)-2-methylcyclopent-2-enone] yielded an IC50 of 0.14 µM. This IC50 and that of the molecule before are within 1.5-fold of each other.
